Among the data in ChEMBL document CHEMBL1126559, “Further studies of the structure-activity relationships of 1-[1-(2-benzo[b]thienyl)cyclohexyl]piperidine. Synthesis and evaluation of 1-(2-benzo[b]thienyl)-N,N-dialkylcyclohexylamines at dopamine uptake and phencyclidine binding sites” (J Med Chem, 1993) are Ki and IC50 values, retold here.

One test has as its target Glutamate NMDA receptor. Briefly: Tested for affinity by radioligand [3H]-TCP displacement from phencyclidine binding site (PCP) in rat homogenates.
Test [1] addresses T1, Sodium-dependent dopamine transporter (Rattus norvegicus, UniProt P23977). Briefly: Tested for radioligand [3H]BTCP displacement from dopamine transporter in rat forebrain.
For test [2], the target named is T1, Sodium-dependent dopamine transporter. Briefly: Tested for radioligand [3H]cocaine displacement from dopamine transporter in rat forebrain.
Test [3] shares this target. Briefly: Tested for inhibition of radioligand [3H]dopamine (DA) uptake in rat synaptosomes. It counts as subcellular, Brain.

T1 sequence (P23977 whole entry): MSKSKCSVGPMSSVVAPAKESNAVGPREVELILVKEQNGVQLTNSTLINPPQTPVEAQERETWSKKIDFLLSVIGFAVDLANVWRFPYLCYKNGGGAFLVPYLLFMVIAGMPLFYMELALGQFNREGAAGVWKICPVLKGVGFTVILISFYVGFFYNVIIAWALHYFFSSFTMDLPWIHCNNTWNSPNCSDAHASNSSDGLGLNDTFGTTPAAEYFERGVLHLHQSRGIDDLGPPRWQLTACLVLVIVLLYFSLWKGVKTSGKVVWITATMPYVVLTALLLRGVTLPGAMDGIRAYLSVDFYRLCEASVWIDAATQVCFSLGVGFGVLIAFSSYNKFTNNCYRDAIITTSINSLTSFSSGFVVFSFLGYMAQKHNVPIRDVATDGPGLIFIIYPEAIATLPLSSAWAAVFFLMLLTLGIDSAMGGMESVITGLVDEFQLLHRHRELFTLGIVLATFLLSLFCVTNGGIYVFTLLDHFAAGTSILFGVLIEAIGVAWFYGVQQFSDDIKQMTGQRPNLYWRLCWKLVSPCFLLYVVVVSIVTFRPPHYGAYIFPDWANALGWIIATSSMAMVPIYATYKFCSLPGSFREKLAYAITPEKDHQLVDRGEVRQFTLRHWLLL

At Glutamate NMDA receptor, `CCCCCNC1(c2cc3ccccc3s2)CCCCC1` registered a Ki greater than 10000 nM. Also, the half-maximal inhibitory concentration (IC50) came out at 24 nM in test [1], 337 nM in test [2] and 34 nM in test [3].

At Glutamate NMDA receptor, `Clc1ccc(CCNCCNC2(c3cc4ccccc4s3)CCCCC2)cc1Cl` yielded an inhibitory constant (Ki) greater than 10000 nM. The figures for the concentration for half-maximal inhibition (IC50) in test [1], in test [2] and in test [3] were 211 nM, 713 nM and 174 nM, respectively.

As for `CCCN(CCC)C1(c2cc3ccccc3s2)CCCCC1`, the Ki on Glutamate NMDA receptor was greater than 10000 nM. Further, the IC50 in test [1] came out at 37 nM; in test [2], 220 nM; in test [3] it was 81 nM.

Consider `C=CCNC1(c2cc3ccccc3s2)CCCCC1`, for which the Ki on Glutamate NMDA receptor is greater than 10000 nM. Besides, the half-maximal inhibitory concentration (IC50) turned out to be 7 nM in test [1], 57 nM in test [2] and 11 nM in test [3].

Molecule `CCN(CC)C1(c2cc3ccccc3s2)CCCCC1` yielded a Ki on Glutamate NMDA receptor greater than 10000 nM. Further, the half-maximal inhibitory concentration (IC50) was determined as 12 nM in test [1], 42 nM in test [2] and 12 nM in test [3].

Turning to `c1ccc2sc(C3(NCC4CCC4)CCCCC3)cc2c1`, the Ki on Glutamate NMDA receptor was greater than 10000 nM. In addition, the 50% inhibitory concentration (IC50) came out at 4 nM in test [1], 37 nM in test [2] and 7 nM in test [3].

As for `O=C1NCCN1C1(c2cc3ccccc3s2)CCCCC1`, the inhibitory constant (Ki) at Glutamate NMDA receptor was greater than 10000 nM. Also, the IC50 in test [1] was 1740 nM; in test [2] it was greater than 5000 nM; in test [3], 2120 nM.

Molecule `NCCNC1(c2cc3ccccc3s2)CCCCC1` registered an inhibitory constant (Ki) at Glutamate NMDA receptor greater than 10000 nM. Besides, the IC50 in test [1] worked out at 30 nM; in test [2], 170 nM; in test [3], 88 nM.

`c1ccc2sc(C3(N4CCCCC4)CCCCC3)cc2c1` showed a Ki at Glutamate NMDA receptor greater than 10000 nM. In addition, the concentration for half-maximal inhibition (IC50) in test [2] turned out to be 39 nM; in test [3] it was 11 nM.

With `CNCCCNC1(c2cc3ccccc3s2)CCCCC1`, at Glutamate NMDA receptor, the Ki is greater than 10000 nM. The IC50 was 8 nM in test [1], 746 nM in test [2] and 89 nM in test [3].

For the molecule `CNCCNC1(c2cc3ccccc3s2)CCCCC1`, on Glutamate NMDA receptor, the Ki was greater than 10000 nM. In addition, the IC50 is 17 nM in test [1], 63 nM in test [2] and 29 nM in test [3].

Take `Clc1ccc(CCNC2(c3cc4ccccc4s3)CCCCC2)cc1Cl`: the Ki on Glutamate NMDA receptor is greater than 10000 nM. In addition, the concentration for half-maximal inhibition (IC50) in test [1] is 1000 nM; in test [2], greater than 5000 nM; in test [3], greater than 5000 nM.

Regarding `NCCCNC1(c2cc3ccccc3s2)CCCCC1`, the inhibitory constant (Ki) at Glutamate NMDA receptor is greater than 10000 nM.

Turning to `O=C(Cc1ccc(Cl)c(Cl)c1)NCCNC1(c2cc3ccccc3s2)CCCCC1`, the inhibition constant (Ki) at Glutamate NMDA receptor is greater than 10000 nM. The IC50 in test [1] turned out to be 579 nM; in test [2], 1480 nM; in test [3], 947 nM.

`CCCCNC1(c2cc3ccccc3s2)CCCCC1`: the Ki at Glutamate NMDA receptor was greater than 10000 nM. Moreover, the IC50 in test [1] was 0.3 nM; in test [2], 60 nM; in test [3] it was 7 nM.

`CCCN(CC)C1(c2cc3ccccc3s2)CCCCC1`: the Ki at Glutamate NMDA receptor was greater than 10000 nM. The IC50 in test [1] came to 20 nM; in test [2] it was 207 nM; in test [3], 17 nM.

For `CCNC1(c2cc3ccccc3s2)CCCCC1`, the Ki at Glutamate NMDA receptor was greater than 10000 nM. Besides, the IC50 worked out at 22 nM in test [1], 165 nM in test [2] and 22 nM in test [3].

`CCCCN(C)C1(c2cc3ccccc3s2)CCCCC1` returned a Ki at Glutamate NMDA receptor greater than 10000 nM. For the same molecule, the results for the IC50 in test [1], in test [2] and in test [3] were 21 nM, 161 nM and 33 nM, respectively.

`CNC1(c2cc3ccccc3s2)CCCCC1` returned a Ki on Glutamate NMDA receptor greater than 10000 nM. For the same molecule, the concentration for half-maximal inhibition (IC50) amounted to 101 nM in test [1], 270 nM in test [2] and 57 nM in test [3].

The molecule `CCCCN(CCCC)C1(c2cc3ccccc3s2)CCCCC1` registered an inhibitory constant (Ki) at Glutamate NMDA receptor greater than 10000 nM. In addition, the IC50 was determined as 124 nM in test [1], 386 nM in test [2] and 1360 nM in test [3].

Consider `CNCCCCNC1(c2cc3ccccc3s2)CCCCC1`, for which the Ki at Glutamate NMDA receptor was greater than 10000 nM. Moreover, the half-maximal inhibitory concentration (IC50) in test [1] stood at 50 nM; in test [2] it was 328 nM; in test [3], 33 nM.

In turn, `c1ccc2sc(C3(NCC4CC4)CCCCC3)cc2c1` showed an inhibition constant (Ki) on Glutamate NMDA receptor greater than 10000 nM. The results for the IC50 in test [1], in test [2] and in test [3] were 1 nM, 23 nM and 4 nM, respectively.

`CN(C)C1(c2cc3ccccc3s2)CCCCC1` registered a Ki at Glutamate NMDA receptor greater than 10000 nM. The figures for the IC50 in test [1], in test [2] and in test [3] were 27 nM, 84 nM and 51 nM, respectively.

At Glutamate NMDA receptor, `CC(C)=CCNC1(c2cc3ccccc3s2)CCCCC1` showed an inhibitory constant (Ki) greater than 10000 nM. Besides, the half-inhibitory concentration (IC50) is 8 nM in test [1], 50 nM in test [2] and 14 nM in test [3].

Molecule `CCCNC1(c2cc3ccccc3s2)CCCCC1` displayed an inhibition constant Ki at Glutamate NMDA receptor greater than 10000 nM. Also, the 50% inhibitory concentration (IC50) in test [1] came to 4 nM; in test [2], 57 nM; in test [3], 5 nM.

Molecule `NCC(=O)NC1(c2cc3ccccc3s2)CCCCC1` showed an inhibitory constant (Ki) at Glutamate NMDA receptor greater than 10000 nM. The IC50 in test [1] was 114 nM; in test [2], 841 nM; in test [3] it was 138 nM.

Molecule `COC(=O)[C@H]1[C@@H](OC(=O)c2ccccc2)C[C@@H]2CC[C@H]1N2C` [COCAINE] gave an inhibition constant (Ki) at Glutamate NMDA receptor greater than 10000 nM.

Molecule `c1ccc(CNC2(c3cc4ccccc4s3)CCCCC2)cc1` displayed a Ki at Glutamate NMDA receptor greater than 10000 nM. In addition, the values for the IC50 in test [1] and in test [3] were 143 nM and 196 nM, respectively.
